# Values of other authors as cited in patent publication US20240000717A1, “DRY POWDER ANTIVIRAL COMPOSITIONS AND THEIR USE FOR TREATING VIRAL INFECTION” (priority 2020, published 2024).
# System: hospitalized COVID-19 patients
# Conditions: Pan et al., MedRxiv 2020
compound,measurement,value
"CCC(CC)COC(=O)[C@H](C)N[P@](=O)(OC[C@H]1O[C@@](C#N)(c2ccc3c(N)ncnn23)[C@H](O)[C@@H]1O)Oc1ccccc1 [remdesivir, 2-ethylbutyl ((S)-(((2R,3S,4R,5R)-5-(4-aminopyrrolo[2,1-f][1,2,4]triazin-7-yl)-5-cyano-3,4-dihydroxytetrahydrofuran-2-yl)methoxy)(phenoxy)phosphoryl)-L-alaninate]",effect on 28-day mortality,little or no effect
